The text below walks through data of US20250345492A1, “AN ANTIBACTERIAL POLYPEPTIDE COMPOUND, A MEDICAL DEVICE, HYDROGEL AND USE THEREOF” (priority 2020, published 2025).

Ends that are not written are not given here.

Data set [1] has as its system Bacillus subtilis (ATCC 23857). As to conditions: standard strain. The essentials: (§1)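 Log-phase cells grown in MH (bacteria) or SD (fungi) medium at 37 °C were plated at 1×10^5 CFU/ml with 2-fold serially diluted peptide (1-256 μM solutions added at twice final concentration). After 12 h at 37 °C, MIC was taken as the first clear well by eye, in triplicate.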
Data set [2] concerns P-2c, clinical isolated drug-resistant strain PA. As to conditions: strain P-2c (PA). The essentials:
as §1

The test system of data set [3] is S-1a, clinical isolated drug-resistant strain MRSA. As to conditions: strain S-1a (MRSA). The essentials: as §1
Data set [4] deals with Staphylococcus aureus (ATCC 29213). To be noted: standard strain. The procedure, abridged: as §1
In data set [5] the test system is E. coli (ATCC 25922). Put plainly: Mouse septic peritonitis model, survival. It is filed as in vivo, Kunming mice. As to conditions: 20 mg/kg intraperitoneally one hour after E. coli inoculation, 7 days of observation. As to the method: The determination of the in vivo antibacterial activity of the antibacterial polypeptide compounds is to reflect the antibacterial activity in vivo by detecting the survival rate of mice infected with bacteria or fungi.
Taking compounds 2, 8, 9, 13 and 15 of the present invention as examples, the in vivo antibacterial effects of the antibacterial polypeptide compounds were analyzed. The mice used in this test were Kunming mice, which were placed in constant-temperature environment (22±1° C.). Simply, 36 Kunming mice (18-22 g of body weight) were randomly divided into 6 groups and intraperitoneally injected with 0.2 ml of 3×10^8 CFU/mL E. coli (ATCC 25922) on Day 1 to establish mouse septic peritonitis model. The mice were administered intraperitoneally one hour after inoculation with the bacteria, and then the compounds 2, 8, 9, 13 and 15 were injected intraperitoneally at a dose of 20 mg/kg of body weight. Polymyxin B (20 mg/kg) was selected as a positive reference control, and a negative control group received intraperitoneal injection of sterile saline. After 7 days of observation, the survival rates of mice in administration groups and control groups were calculated to create survival curves.

The subject of data set [6] is human cervical cancer cell Hela. Put plainly: Cytotoxicity, MTT colorimetry. It is filed as cell-based. Here is the method: (§2) For cytotoxicity determination, the MTT colorimetry was used to evaluate the effects of the compounds on the proliferation of human cervical cancer cell Hela, human embryonic renal epithelial cell HEK293 and mouse mononuclear macrophage RAW264.7.
(§3) Taking compounds 2, 8, 9, 13 and 15 of the present invention as examples, the cytotoxicity of the antibacterial polypeptide compounds was analyzed. Three cell lines were employed for the present invention, namely human cervical cancer cell Hela, human embryonic renal epithelial cell HEK293 and mouse mononuclear macrophage RAW264.7. Hela cells were cultured in RPMI 1640 medium with 10% newborn calf serum, HEK293 cells and RAW264.7 cells were cultured in DMEM medium with 10% fetal bovine serum. Simply, cells (1×10^4 cells/well) were inoculated to a 96-well plate and incubated in an incubator set to 5% CO2 at 37° C. After 24 hours, compounds of different concentrations were added and incubated in the 5% CO2 incubator. After 24 hours, 20 μL of MTT solution with a concentration of 5 mg/mL was added to each well and incubated for 4 hours. After that, the medium was removed with a pipet, and 150 μL of DMSO added to dissolve the purple-blue formazan crystals. The solution was shaken in an oscillator for 5 mins before detecting the absorbance value at 570 nm using the ELISA reader, and then the survival rate was calculated with the formula: (OD dosing group/OD control group)×100% (n=3).

Data set [7] has as its system human embryonic renal epithelial cell HEK293. Briefly: Cytotoxicity, MTT colorimetry. It counts as cell-based. Here is the method:
as §2, §3

Data set [8] relates to mouse mononuclear macrophage RAW264.7. Put plainly: Cytotoxicity, MTT colorimetry. It counts as cell-based. As to the method: as §2, §3

As usually defined, the MIC is the lowest concentration found to suppress growth. The low end stands for a more susceptible organism, the high end for a less susceptible organism. With “Pro-Phe-Lys-Leu-Ser-Leu-His-Leu-NH2 (PFKLSLHL-NH2) [Compound J-1, reference compound]”, the “MIC B. subtilis ATCC23857” value in data set [1] amounted to 32 µM. The figures for the MIC in data set [2] and in data set [3] were 32 µM and 128 µM, respectively. The “MIC S. aureus ATCC29213” value in data set [4] was 128 µM. Besides, the “survival rate of mice” value in data set [5] is “about 50%”.

Consider “Pro-Trp-Orn-Leu-Orn-Leu-His-Leu-NH2 (PWXLXLHL; HELM PEPTIDE1{P.W.[Orn].L.[Orn].L.H.L.[am]}$$$$V2.0; N-terminus assumed; SMILES CC(C)C[C@H](NC(=O)[C@H](Cc1c[nH]cn1)NC(=O)[C@H](CC(C)C)NC(=O)[C@H](CCCN)NC(=O)[C@H](CC(C)C)NC(=O)[C@H](CCCN)NC(=O)[C@H](Cc1c[nH]c2ccccc12)NC(=O)[C@@H]1CCCN1)C(N)=O) [Compound 9]”, for which the “MIC B. subtilis ATCC23857” value in data set [1] stood at 16 µM. Further, the MIC in data set [2] amounted to 8 µM; in data set [3], 64 µM. In addition, in data set [4], the “MIC S. aureus ATCC29213” value turned out to be 64 µM. Moreover, the “effect on proliferation (inhibitory activity)” value in data set [6], in data set [7] and in data set [8] was “no inhibitory activity” each time.
